Results published in patent US8124793B2, “Derivatives of ethylene methanedisulfonate as cancer chemotherapeutic agents” (priority 2007, dated 2012).

Assays:
Assay type in all cases: cell-based
CCRF-CEM = assay: NCI screen, growth of human tumor cells: Leukemia CCRF-CEM; conditions: CCRF-CEM (Leukemia), 10^−4 molar
How it was run: (§1)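 NCI screening: compound applied to tumor cell lines at a given molar concentration, growth measured as percent. Minimum 60 data points/compound; cancer type noted.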

HL-60 (TB) = assay: NCI screen, growth of human tumor cells: Leukemia HL-60 (TB); conditions: HL-60 (TB) (Leukemia), 10^−4 molar
Method: (§2) In the NCI screening process, each compound was tested and described by a minimum of 60 data points. The test data include, but are not limited to the type of cancer, the molar concentration used in the screen, and the percent growth of the cancer. In some cases, NMR and elemental analysis were used for structural assignment.

K562 = assay: NCI screen, growth of human tumor cells: Leukemia K562; conditions: K562 (Leukemia), 10^−4 molar
How it was run: as §1

MOLT-4 = assay: NCI screen, growth of human tumor cells: Leukemia MOLT-4; conditions: MOLT-4 (Leukemia), 10^−4 molar
Method: as §2

RPMI-8226 = assay: NCI screen, growth of human tumor cells: Leukemia RPMI-8226; conditions: RPMI-8226 (Leukemia), 10^−4 molar
How it was run: as §1

SR = assay: NCI screen, growth of human tumor cells: Leukemia SR; conditions: SR
How it was run: as §1

AS49/ATCC = assay: NCI screen, growth of human tumor cells: Non-Small Cell Lung AS49/ATCC; conditions: AS49/ATCC (Non-Small Cell Lung), 10^−4 molar
Method: as §2

EKVX = assay: NCI screen, growth of human tumor cells: Non-Small Cell Lung EKVX; conditions: EKVX (Non-Small Cell Lung), 10^−4 molar
How it was run: as §1

HOP-62 = assay: NCI screen, growth of human tumor cells: Non-Small Cell Lung HOP-62; conditions: HOP-62, 10^−4 molar
How it was run: as §1

NCI-H226 = assay: NCI screen, growth of human tumor cells: Non-Small Cell Lung NCI-H226; conditions: NCI-H226 (Non-Small Cell Lung), 10^−4 molar
How it was run: as §1

NCI-H522 = assay: NCI screen, growth of human tumor cells: Non-Small Cell Lung NCI-H522; conditions: NCI-H522, 10^−4 molar
Method: as §2

NCI-H460 = assay: NCI screen, growth of human tumor cells: Non-Small Cell Lung NCI-H460; conditions: NCI-H460 (Non-Small Cell Lung), 10^−4 molar
How it was run: as §1

NCI-H322M = assay: NCI screen, growth of human tumor cells: Non-Small Cell Lung NCI-H322M; conditions: NCI-H322M, 10^−4 molar
Method: as §2

NCI-H23 = assay: NCI screen, growth of human tumor cells: Non-Small Cell Lung NCI-H23; conditions: NCI-H23, 10^−4 molar
How it was run: as §1

HCC-2998 = assay: NCI screen, growth of human tumor cells: HCC-2998 (listed under Non-Small Cell Lung); conditions: HCC-2998, 10^−4 molar
Method: as §2

COLO205 = assay: NCI screen, growth of human tumor cells: Colon Cancer COLO205; conditions: COLO205, 10^−4 molar
How it was run: as §1

HCT-116 = assay: NCI screen, growth of human tumor cells: Colon Cancer HCT-116; conditions: HCT-116 (Colon Cancer), 10^−4 molar
How it was run: as §1

HCT-15 = assay: NCI screen, growth of human tumor cells: Colon Cancer HCT-15; conditions: HCT-15, 10^−4 molar
How it was run: as §1

HT29 = assay: NCI screen, growth of human tumor cells: Colon Cancer HT29; conditions: HT29 (Colon Cancer), 10^−4 molar
Method: as §2

KM12 = assay: NCI screen, growth of human tumor cells: Colon Cancer KM12; conditions: KM12 (Colon Cancer), 10^−4 molar
How it was run: as §1

SF-268 = assay: NCI screen, growth of human tumor cells: CNS Cancer SF-268; conditions: SF-268 (CNS Cancer), 10^−4 molar
How it was run: as §1

SF-295 = assay: NCI screen, growth of human tumor cells: CNS Cancer SF-295
How it was run: as §1

SF-539 = assay: NCI screen, growth of human tumor cells: CNS Cancer SF-539
How it was run: as §1

U-251 = assay: NCI screen, growth of human tumor cells: CNS Cancer U-251; conditions: U-251 (CNS Cancer), 10^−4 molar
How it was run: as §1

M14 = assay: NCI screen, growth of human tumor cells: Melanoma M14; conditions: M14, 10^−4 molar
How it was run: as §1

MALME-3M = assay: NCI screen, growth of human tumor cells: Melanoma MALME-3M; conditions: MALME-3M, 10^−4 molar
Method: as §2

SK-MEL-2 = assay: NCI screen, growth of human tumor cells: Melanoma SK-MEL-2; conditions: SK-MEL-2 (Melanoma), 10^−4 molar
Method: as §2

SK-MEL-28 = assay: NCI screen, growth of human tumor cells: Melanoma SK-MEL-28; conditions: SK-MEL-28, 10^−4 molar
Method: as §2

SK-MEL-5 = assay: NCI screen, growth of human tumor cells: Melanoma SK-MEL-5; conditions: SK-MEL-5, 10^−4 molar
How it was run: as §1

UACC-257 = assay: NCI screen, growth of human tumor cells: Melanoma UACC-257; conditions: UACC-257, 10^−4 molar
Method: as §2

UACC-62 = assay: NCI screen, growth of human tumor cells: Melanoma UACC-62
How it was run: as §1

IGROVI = assay: NCI screen, growth of human tumor cells: Ovarian Cancer IGROVI; conditions: IGROVI (Ovarian Cancer), 10^−4 molar
Method: as §2

SK-OV-3 = assay: NCI screen, growth of human tumor cells: Ovarian Cancer SK-OV-3; conditions: SK-OV-3 (Ovarian Cancer), 10^−4 molar
Method: as §2

OVCAR-3 = assay: NCI screen, growth of human tumor cells: Ovarian Cancer OVCAR-3; conditions: OVCAR-3 (Ovarian Cancer), 10^−4 molar
How it was run: as §1

OVCAR-4 = assay: NCI screen, growth of human tumor cells: Ovarian Cancer OVCAR-4; conditions: OVCAR-4 (Ovarian Cancer), 10^−4 molar
How it was run: as §1

OVCAR-5 = assay: NCI screen, growth of human tumor cells: Ovarian Cancer OVCAR-5; conditions: OVCAR-5, 10^−4 molar
Method: as §2

786-0 = assay: NCI screen, growth of human tumor cells: Renal Cancer 786-0
Method: as §2

ACHN = assay: NCI screen, growth of human tumor cells: Renal Cancer ACHN; conditions: ACHN
How it was run: as §1

RXF-393 = assay: NCI screen, growth of human tumor cells: Renal Cancer RXF-393; conditions: RXF-393 (Renal Cancer), 10^−4 molar
How it was run: as §1

SN12C = assay: NCI screen, growth of human tumor cells: Renal Cancer SN12C; conditions: SN12C (Renal Cancer), 10^−4 molar
How it was run: as §1

CAKI-1 = assay: NCI screen, growth of human tumor cells: Renal Cancer CAKI-1; conditions: CAKI-1 (Renal Cancer), 10^−4 molar
How it was run: as §1

UO-31 = assay: NCI screen, growth of human tumor cells: Renal Cancer UO-31; conditions: UO-31 (Renal Cancer), 10^−4 molar
How it was run: as §1

DU-145 = assay: NCI screen, growth of human tumor cells: Prostate Cancer DU-145; conditions: DV-145, 10^−4 molar
How it was run: as §1

MCF 7 = assay: NCI screen, growth of human tumor cells: Breast Cancer MCF 7; conditions: MCF 7 (Breast Cancer), 10^−4 molar
Method: as §2

MCF7/ADR-RES = assay: NCI screen, growth of human tumor cells: Breast Cancer MCF7/ADR-RES; conditions: MCF7/ADR-RES (Breast Cancer), 10^−4 molar
How it was run: as §1

BT-549 = assay: NCI screen, growth of human tumor cells: Breast Cancer BT-549; conditions: BT-549, 10^−4 molar
How it was run: as §1

MDA-MB-435 = assay: NCI screen, growth of human tumor cells: Breast Cancer MDA-MB-435; conditions: MDA-MB-435, 10^−4 molar
How it was run: as §1

human cancer cells = assay: NCI screen summary over the cancers tested (negative growth of human cancer cells); conditions: cancers with negative growth / cancers tested
Method: as §2
The derivatives in the tables are grouped using the same category as in the tables 1-6.

SMILES: CC1=C(CC2(S(=O)(=O)C(F)(F)F)S(=O)(=O)OCCOS2(=O)=O)C(=O)c2ccccc2C1=O [NSC 720682, ethylene trifluorosulfonyl-(3-methyl-1,4-naphtho-2-quinolyl)-1,1-ethanedisulfonate]
- percent of growth of human tumor cells (CCRF-CEM): −5%
- percent of growth of human tumor cells (HL-60 (TB)): −22%
- percent of growth of human tumor cells (K562): −11%
- percent of growth of human tumor cells (MOLT-4): −11%
- percent of growth of human tumor cells (RPMI-8226): −4%
- % Growth (SR; 10^−4 molar): −14%
- % Growth (SR; 10^−5 molar): 30%
- percent of growth of human tumor cells (AS49/ATCC): −37%
- percent of growth of human tumor cells (EKVX): −36%
- % Growth (HOP-62): −96%
- percent of growth of human tumor cells (NCI-H226): −45%
- % Growth (NCI-H522): −72%
- percent of growth of human tumor cells (NCI-H460): −59%
- % Growth (NCI-H322M): −97%
- % Growth (NCI-H23): −68%
- % Growth (HCC-2998): −88%
- % Growth (COLO205): −88%
- percent of growth of human tumor cells (HCT-116): 19%
- % Growth (HCT-15): −72%
- percent of growth of human tumor cells (HT29): −43%
- percent of growth of human tumor cells (KM12): 20%
- percent of growth of human tumor cells (SF-268): 1%
- % Growth (SF-295; SF-295, 10^−4 molar): −78%
- % Growth (SF-295; SF-295, 10^−5 molar): 53%
- % Growth (SF-539; SF-539, 10^−4 molar): −69%
- % Growth (SF-539; SF-539, 10^−5 molar): 57%
- percent of growth of human tumor cells (U-251): −36%
- % Growth (M14): −90%
- % Growth (MALME-3M): −89%
- percent of growth of human tumor cells (SK-MEL-2): −58%
- % Growth (SK-MEL-28): −85%
- % Growth (SK-MEL-5): −91%
- % Growth (UACC-257): −64%
- % Growth (UACC-62; UACC-62, 10^−4 molar): −73%
- % Growth (UACC-62; UACC-62, 10^−5 molar): 55%
- percent of growth of human tumor cells (IGROVI): −18%
- percent of growth of human tumor cells (SK-OV-3): 20%
- percent of growth of human tumor cells (OVCAR-3): −42%
- percent of growth of human tumor cells (OVCAR-4): −23%
- % Growth (OVCAR-5): −87%
- % Growth (786-0; 786-0, 10^−4 molar): −20%
- % Growth (786-0; 786-0, 10^−5 molar): 49%
- % Growth (ACHN; 10^−4 molar): −21%
- % Growth (ACHN; 10^−5 molar): 55%
- percent of growth of human tumor cells (RXF-393): 24%
- percent of growth of human tumor cells (SN12C): −70%
- percent of growth of human tumor cells (CAKI-1): 16%
- percent of growth of human tumor cells (UO-31): 29%
- % Growth (DU-145): −99%
- percent of growth of human tumor cells (MCF 7): 1%
- percent of growth of human tumor cells (MCF7/ADR-RES): 1%
- % Growth (BT-549): −78%
- % Growth (MDA-MB-435): −86%
- Percentage of cancers showing negative growth cancers tested (human cancer cells; 10^−4 M conc.): 81%
- Percentage of cancers showing negative growth cancers tested (human cancer cells; 10^−5 M conc.): 17%
